Assay results from ChEMBL document CHEMBL3994622, “Design and synthesis of new RAF kinase-inhibiting antiproliferative quinoline derivatives. Part 2: Diarylurea derivatives” (Eur J Med Chem, 2017).

Experiments:
Type in all cases: functional
EKVX = test: Growth inhibition of human EKVX cells assessed as cell growth at 0.003 uM incubated for 48 hrs by sulforhodamine B assay relative to control; conditions: read-out: Activity
MDA-MB-468 = test: Growth inhibition of human MDA-MB-468 cells assessed as cell growth at 1 uM incubated for 48 hrs by sulforhodamine B assay relative to control; conditions: MDA-MB-468, 48 h, read-out: Activity
NCI-H460 [1] = test: Growth inhibition of human NCI-H460 cells assessed as cell growth at 10 uM incubated for 48 hrs by sulforhodamine B assay relative to control; conditions: NCI-H460, 48 h, read-out: Activity
K562 [2] = test: Growth inhibition of human K562 cells assessed as cell growth at 0.05 uM incubated for 48 hrs by sulforhodamine B assay relative to control; conditions: K562, 48 h, read-out: Activity
COLO 205 = test: Growth inhibition of human COLO205 cells assessed as cell growth at 0.005 uM incubated for 48 hrs by sulforhodamine B assay relative to control; conditions: COLO 205, 48 h, read-out: Activity
Malme-3M = test: Growth inhibition of human MALME-3M cells assessed as cell growth at 5 uM incubated for 48 hrs by sulforhodamine B assay relative to control; conditions: read-out: Activity
T47D = test: Growth inhibition of human T47D cells assessed as cell growth at 0.05 uM incubated for 48 hrs by sulforhodamine B assay relative to control; conditions: read-out: Activity
SK-MEL-5 [3] = test: Growth inhibition of human SK-MEL-5 cells assessed as cell growth at 0.005 uM incubated for 48 hrs by sulforhodamine B assay relative to control; conditions: SK-MEL-5, 48 h, read-out: Activity
CAKI-1 = test: Growth inhibition of human Caki1 cells assessed as cell growth at 0.5 uM incubated for 48 hrs by sulforhodamine B assay relative to control; conditions: CAKI-1, 48 h, read-out: Activity
LOX IMVI = test: Growth inhibition of human LOXIMVI cells assessed as cell growth at 5 uM incubated for 48 hrs by sulforhodamine B assay relative to control; conditions: read-out: Activity
ACHN = test: Growth inhibition of human ACHN cells assessed as cell growth at 5 uM incubated for 48 hrs by sulforhodamine B assay relative to control; conditions: read-out: Activity
OVCAR-8 [4] = test: Growth inhibition of human OVCAR8 cells assessed as cell growth at 0.05 uM incubated for 48 hrs by sulforhodamine B assay relative to control; conditions: OVCAR-8, 48 h, read-out: Activity
U-251 = test: Growth inhibition of human U251 cells assessed as cell growth at 5 uM incubated for 48 hrs by sulforhodamine B assay relative to control; conditions: U-251, 48 h, read-out: Activity
SNB-75 = test: Growth inhibition of human SNB75 cells assessed as cell growth at 0.05 uM incubated for 48 hrs by sulforhodamine B assay relative to control; conditions: SNB-75, 48 h, read-out: Activity
OVCAR-8 [5] = test: Growth inhibition of human OVCAR8 cells assessed as cell growth at 50 uM incubated for 48 hrs by sulforhodamine B assay relative to control; conditions: OVCAR-8, 48 h, read-out: Activity
RXF 393 = test: Growth inhibition of human RXF393 cells assessed as cell growth at 0.5 uM incubated for 48 hrs by sulforhodamine B assay relative to control; conditions: RXF 393, 48 h, read-out: Activity
OVCAR-4 [6] = test: Growth inhibition of human OVCAR4 cells assessed as cell growth at 0.005 uM incubated for 48 hrs by sulforhodamine B assay relative to control; conditions: OVCAR-4, 48 h, read-out: Activity
OVCAR-4 [7] = test: Growth inhibition of human OVCAR4 cells assessed as cell growth at 5 uM incubated for 48 hrs by sulforhodamine B assay relative to control; conditions: OVCAR-4, 48 h, read-out: Activity
K562 [8] = test: Growth inhibition of human K562 cells assessed as cell growth at 50 uM incubated for 48 hrs by sulforhodamine B assay relative to control; conditions: K562, 48 h, read-out: Activity
NCI-H226 = test: Growth inhibition of human NCI-H226 cells assessed as cell growth at 0.5 uM incubated for 48 hrs by sulforhodamine B assay relative to control; conditions: NCI-H226, 48 h, read-out: Activity
NCI/ADR-RES = test: Growth inhibition of human NCI/ADR-RES cells assessed as cell growth at 50 uM incubated for 48 hrs by sulforhodamine B assay relative to control; conditions: read-out: Activity
OVCAR-3 = test: Growth inhibition of human OVCAR3 cells assessed as cell growth at 0.005 uM incubated for 48 hrs by sulforhodamine B assay relative to control; conditions: OVCAR-3, 48 h, read-out: Activity
HCT-116 = test: Growth inhibition of human HCT116 cells assessed as cell growth at 5 uM incubated for 48 hrs by sulforhodamine B assay relative to control; conditions: HCT-116, 48 h, read-out: Activity
OVCAR-8 [9] = test: Growth inhibition of human OVCAR8 cells assessed as cell growth at 0.5 uM incubated for 48 hrs by sulforhodamine B assay relative to control; conditions: OVCAR-8, 48 h, read-out: Activity
HT-29 = test: Growth inhibition of human HT-29 cells assessed as cell growth at 0.5 uM incubated for 48 hrs by sulforhodamine B assay relative to control; conditions: HT-29, 48 h, read-out: Activity
SK-MEL-5 [10] = test: Growth inhibition of human SK-MEL-5 cells assessed as cell growth at 5 uM incubated for 48 hrs by sulforhodamine B assay relative to control; conditions: SK-MEL-5, 48 h, read-out: Activity
UACC-257 = test: Growth inhibition of human UACC257 cells assessed as cell growth at 0.5 uM incubated for 48 hrs by sulforhodamine B assay relative to control; conditions: UACC-257, 48 h, read-out: Activity
UACC-62 = test: Growth inhibition of human UACC62 cells assessed as cell growth at 0.005 uM incubated for 48 hrs by sulforhodamine B assay relative to control; conditions: UACC-62, 48 h, read-out: Activity
NCI-H522 [11] = test: Growth inhibition of human NCI-H522 cells assessed as cell growth at 0.05 uM incubated for 48 hrs by sulforhodamine B assay relative to control; conditions: NCI-H522, 48 h, read-out: Activity
MDA-MB-435 = test: Growth inhibition of human MDA-MB-435 cells assessed as cell growth at 5 uM incubated for 48 hrs by sulforhodamine B assay relative to control; conditions: MDA-MB-435, 48 h, read-out: Activity
NCI-H460 [12] = test: Growth inhibition of human NCI-H460 cells assessed as cell growth at 0.5 uM incubated for 48 hrs by sulforhodamine B assay relative to control; conditions: NCI-H460, 48 h, read-out: Activity
NCI-H522 [13] = test: Growth inhibition of human NCI-H522 cells assessed as cell growth at 0.005 uM incubated for 48 hrs by sulforhodamine B assay relative to control; conditions: NCI-H522, 48 h, read-out: Activity
OVCAR-4 [14] = test: Growth inhibition of human OVCAR4 cells assessed as cell growth at 0.05 uM incubated for 48 hrs by sulforhodamine B assay relative to control; conditions: OVCAR-4, 48 h, read-out: Activity
SR = test: Growth inhibition of human SR cells assessed as cell growth at 0.05 uM incubated for 48 hrs by sulforhodamine B assay relative to control; conditions: read-out: Activity
UO-31 = test: Growth inhibition of human UO31 cells assessed as cell growth at 0.5 uM incubated for 48 hrs by sulforhodamine B assay relative to control; conditions: UO-31, 48 h, read-out: Activity

## COc1cc2cc(Oc3ccc(NC(=O)Nc4ccc(Cl)c(C(F)(F)F)c4)cc3)c(C)nc2cc1OC
EKVX
  growth at 0.003 µM: 103%

## COc1cc2cc(Oc3ccc(NC(=O)Nc4cc(C(F)(F)F)cc(C(F)(F)F)c4)cc3)c(C)nc2cc1OC
MDA-MB-468
  growth at 1 µM: 53%
NCI-H460 [1]
  growth at 10 µM: -64%

## COc1cc2cc(Oc3ccc(NC(=O)Nc4cccc(C(F)(F)F)c4)cc3)c(C)nc2cc1OC
K562 [2]
  growth at 0.05 µM: 99%
COLO 205
  growth at 0.005 µM: 97%
Malme-3M
  growth at 5 µM: -1%
T47D
  growth at 0.05 µM: 101%
SK-MEL-5 [3]
  growth at 0.005 µM: 96%
CAKI-1
  growth at 0.5 µM: 91%
LOX IMVI
  growth at 5 µM: 14%
ACHN
  growth at 5 µM: 8%
OVCAR-8 [4]
  growth at 0.05 µM: 103%
U-251
  growth at 5 µM: 5%
SNB-75
  growth at 0.05 µM: 99%
OVCAR-8 [5]
  growth at 50 µM: -90%
RXF 393
  growth at 0.5 µM: 103%
OVCAR-4 [6]
  growth at 0.005 µM: 92%
OVCAR-4 [7]
  growth at 5 µM: 25%
K562 [8]
  growth at 50 µM: -16%
NCI-H226
  growth at 0.5 µM: 108%
NCI/ADR-RES
  growth at 50 µM: -56%
OVCAR-3
  growth at 0.005 µM: 101%
HCT-116
  growth at 5 µM: 6%
OVCAR-8 [9]
  growth at 0.5 µM: 96%
HT-29
  growth at 0.5 µM: 112%
SK-MEL-5 [10]
  growth at 5 µM: -35%
UACC-257
  growth at 0.5 µM: 82%
UACC-62
  growth at 0.005 µM: 93%
NCI-H522 [11]
  growth at 0.05 µM: 92%
MDA-MB-435
  growth at 5 µM: 13%
NCI-H460 [12]
  growth at 0.5 µM: 96%
NCI-H522 [13]
  growth at 0.005 µM: 86%
OVCAR-4 [14]
  growth at 0.05 µM: 95%
SR
  growth at 0.05 µM: 93%
UO-31
  growth at 0.5 µM: 106%
